Like-named read-outs stand apart in the source and are kept apart here. A value given as a limit tells only on which side of the number the result lay.

In this experiment the target is T1, recombinant human liver glycogen phosphorylase (Homo sapiens, UniProt P06737).
T1 construct: made in house; host or cells: Sf9 insect cells (crude homogenate, diluted, used as the enzyme solution)
T1 sequence (P06737 1-847): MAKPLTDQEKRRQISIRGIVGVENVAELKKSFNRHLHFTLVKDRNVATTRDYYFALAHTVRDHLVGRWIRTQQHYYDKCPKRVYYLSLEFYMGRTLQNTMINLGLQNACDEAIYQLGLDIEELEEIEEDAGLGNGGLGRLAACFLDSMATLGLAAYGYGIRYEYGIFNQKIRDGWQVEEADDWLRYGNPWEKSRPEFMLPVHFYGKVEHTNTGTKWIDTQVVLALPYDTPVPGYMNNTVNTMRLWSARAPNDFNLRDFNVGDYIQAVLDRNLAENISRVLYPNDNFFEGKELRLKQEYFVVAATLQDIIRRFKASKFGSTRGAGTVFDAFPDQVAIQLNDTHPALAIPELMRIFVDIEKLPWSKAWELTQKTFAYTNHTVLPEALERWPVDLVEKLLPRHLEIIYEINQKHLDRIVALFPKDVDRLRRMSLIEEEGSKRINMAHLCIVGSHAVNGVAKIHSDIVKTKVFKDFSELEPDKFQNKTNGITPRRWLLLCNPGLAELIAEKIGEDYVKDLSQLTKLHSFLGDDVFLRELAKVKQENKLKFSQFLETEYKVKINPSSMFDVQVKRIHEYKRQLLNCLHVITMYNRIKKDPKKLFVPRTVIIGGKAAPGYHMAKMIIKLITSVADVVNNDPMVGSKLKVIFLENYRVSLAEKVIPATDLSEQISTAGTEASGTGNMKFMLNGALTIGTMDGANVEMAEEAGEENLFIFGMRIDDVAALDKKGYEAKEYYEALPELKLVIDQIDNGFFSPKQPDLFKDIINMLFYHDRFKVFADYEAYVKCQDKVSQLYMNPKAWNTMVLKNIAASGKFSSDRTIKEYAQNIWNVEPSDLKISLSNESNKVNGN
Put plainly: Measuring liver glycogen phosphorylase activity (forward reaction system, NADPH absorbance at 340 nm). The experiment is classed as biochemical. In outline:
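Compounds in 1% DMSO; activity taken as blank-subtracted 340 nm absorbance change across 75 min at room temperature. Forward reaction: glucose-1-phosphate released from glycogen converted by coupling enzymes, yielding NADPH; enzyme from recombinant Sf9 homogenate, reaction containing glucose, pH 6.8. IC50 from two-point linear interpolation.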

[1] abbreviates: enzyme inhibitory activity with respect to liver glycogen phosphorylase, class symbols.
Where [2] appears, read: human liver glycogen phosphorylase, class symbol.
The mark [3] stands for this setting: compound concentration 300 nmol (in parentheses), read-out: inhibition rate (%) at a certain concentration.
The mark [4] stands for this setting: figure in brackets (100), read-out: IC50: % value given with (100).
The mark [5] stands for this setting: figure in brackets (300), read-out: IC50 column: % value printed with (300).
[6] abbreviates: compound concentration 100 nmol (in parentheses), read-out: inhibition rate (%) at a certain concentration.

By IC50 is commonly meant the concentration that gives 50% inhibition. In the case of `CCc1nc(C)c(CNC(=O)c2cc(NC(=O)c3cc(F)c(F)cc3Cl)[nH]n2)o1` [Example 1-158], under setting [1], the IC50 is less than 100 nM. On to `N/C(=N\O)c1cc(CNC(=O)c2cc(NC(=O)c3cc(F)c(F)cc3Cl)[nH]n2)ccn1` [Example 6-49], for which the IC50 under setting [2] is less than 100 nM.

Take `O=C(NCc1ccccc1)c1cc(NC(=O)c2ccc(Cl)cc2Cl)[nH]n1` [Example 4-7]: the IC50 under setting [1] lay in the range of 100 to 300 nM.

Consider `O=C(NCc1cccc(Cl)c1)c1cc(NC(=O)c2cc(F)c(F)cc2Cl)[nH]n1` [Example 3-37], for which the IC50 under setting [1] is less than 100 nM. As to `O=C(O)CN(C(=O)c1cc(NC(=O)c2cc(F)c(F)cc2Cl)[nH]n1)c1ccccc1` [Example 4-5], the IC50 under setting [1] lay within 100 to 300 nM. For `COCCN(CCOC)C(=O)c1cc(NC(=O)c2cc(F)c(F)cc2Cl)[nH]n1` [Example 1-94], the inhibition at 0.3 µM under setting [3] was determined as 36.5%.

For the compound `CN(C(=O)c1cc(NC(=O)c2cc(F)c(F)cc2Cl)[nH]n1)c1ccc(C(=O)OCOC(=O)C(C)(C)C)cc1` [Example 6-13], the inhibition at 0.1 µM under setting [4] came to 17.5%.

`COc1cscc1CNC(=O)c1cc(NC(=O)c2cc(F)c(F)cc2Cl)[nH]n1` [Example 1-164]: the IC50 under setting [1] was less than 100 nM. Regarding `Cc1ccc(C)c(C(=O)Nc2cc(C(=O)NCc3ccccc3)n[nH]2)c1` [Example 4-35], the inhibition at 0.3 µM under setting [3] amounted to 9.7%. `Cc1nc(CNC(=O)c2cc(NC(=O)c3cc(F)c(F)cc3Cl)[nH]n2)c(C)s1` [Example 1-53]: the IC50 under setting [1] is less than 100 nM. The same measure, in the same setting: to `CCN(CC)C(=O)c1cc(NC(=O)c2cc(F)c(F)cc2Cl)[nH]n1` [Example 1-4] belongs less than 100 nM. Consider `CCCCN(C(=O)c1cc(NC(=O)c2cc(F)c(F)cc2Cl)[nH]n1)c1ccc(C(=O)OCC)cc1` [Example 4-40], for which the inhibition at 0.3 µM under setting [3] stood at 3.6%. `O=C(Nc1cc(C(=O)N2C=Nc3ccccc3C2)n[nH]1)c1cc(F)c(F)cc1Cl` [Example 6-44]: the IC50 under setting [2] was less than 100 nM. For `Nc1cc(F)c(F)cc1CNC(=O)c1cc(NC(=O)c2cc(F)c(F)cc2Cl)[nH]n1` [Example 6-40], the IC50 under setting [2] was less than 100 nM.

As for `O=C(Nc1cc(C(=O)N(CCCCO)Cc2ccccc2)n[nH]1)c1cc(F)c(F)cc1Cl` [Example 1-86], the inhibition at 0.3 µM under setting [3] worked out at 17%. For the compound `Cc1ccc(F)cc1C(=O)Nc1cc(C(=O)NCc2ccccc2)n[nH]1` [Example 4-12], under setting [1], the IC50 is 100 to 300 nM. Take `Cc1cc(F)c(F)cc1C(=O)Nc1cc(C(=O)NCc2ccnc(-c3nnn[nH]3)c2)n[nH]1` [Example 7-16]: under setting [2], the IC50 was less than 100 nM. Regarding `O=C(NCCN1CCOCC1)c1ccc(CNC(=O)c2cc(NC(=O)c3cc(F)c(F)cc3Cl)[nH]n2)cc1` [Example 5-4], the IC50 under setting [1] was less than 100 nM.

Take `CN(C(=O)c1cc(NC(=O)c2cc(F)c(N=[N+]=[N-])cc2Cl)[nH]n1)c1ccc(C#N)cc1` [Example 6-9]: under setting [5], the inhibition at 0.3 µM was found to be 5.5%. With `O=C(NCc1ccnc(-c2noc(=O)[nH]2)c1)c1cc(NC(=O)c2cc(F)c(F)cc2Cl)[nH]n1` [Example 6-50], the IC50 under setting [2] was less than 100 nM. As to `CCCCN(C(=O)c1cc(NC(=O)c2cc(F)c(F)cc2Cl)[nH]n1)c1ccccc1` [Example 3-17], under setting [1], the IC50 was less than 100 nM. For the compound `CNC(=O)c1ccc(N(C)C(=O)c2cc(NC(=O)c3cc(F)c(Cl)cc3Cl)[nH]n2)cc1` [Example 6-3], the inhibition at 0.3 µM under setting [5] stood at 9.7%. Take `C[C@@H](NC(=O)c1cc(NC(=O)c2cc(F)c(F)cc2Cl)[nH]n1)c1ccccc1` [Example 2-20]: the inhibition at 0.1 µM under setting [6] came to 43.1%. `O=C(NCc1ccc(Oc2ccccc2)nc1)c1cc(NC(=O)c2cc(F)c(F)cc2Cl)[nH]n1` [Example 2-22]: under setting [1], the IC50 was less than 100 nM. Regarding `Nc1cc(F)c(F)cc1C(=O)Nc1cc(C(=O)NCc2cccnc2)n[nH]1` [Example 7-11], the inhibition at 0.1 µM under setting [4] was determined as 47.3%. Regarding `Cc1nc(CNC(=O)c2cc(NC(=O)c3cc(F)c(F)cc3Cl)[nH]n2)c(C)o1` [Example 1-162], the IC50 under setting [1] was less than 100 nM. On the same count and under the same terms, to `Cc1nn(-c2ccccc2)nc1CNC(=O)c1cc(NC(=O)c2cc(F)c(F)cc2Cl)[nH]n1` [Example 1-61] belongs less than 100 nM; to `N#CC(NC(=O)c1cc(NC(=O)c2cc(F)c(F)cc2Cl)[nH]n1)c1ccccc1` (stereo not shown) [Example 1-75], less than 100 nM.

As to `O=C(Nc1cccc2ncccc12)c1cc(NC(=O)c2cc(F)c(F)cc2Cl)[nH]n1` [Example 1-145], the inhibition at 0.1 µM under setting [6] was found to be 12.8%. In the case of `N=C(Nc1ccc(CNC(=O)c2cc(NC(=O)c3cc(F)c(F)cc3Cl)[nH]n2)cc1)c1ccccc1F` [Example 6-35], the IC50 under setting [2] is less than 100 nM. Turning to `Cc1ccc(CNC(=O)c2cc(NC(=O)c3cc(F)c(F)cc3Cl)[nH]n2)c(=O)[nH]1` [Example 2-33], under setting [1], the IC50 was less than 100 nM. Same read-out and setting: to `CCNC(=O)c1cccc(CNC(=O)c2cc(NC(=O)c3cc(F)c(F)cc3Cl)[nH]n2)c1` [Example 1-121] belongs less than 100 nM; to `CC(C)(C)c1cnc(CNC(=O)c2cc(NC(=O)c3cc(F)c(F)cc3Cl)[nH]n2)s1` [Example 1-60], less than 100 nM. In the case of `CCOC(=O)C1CCN(C(=O)c2cc(NC(=O)c3cc(F)c(F)cc3Cl)[nH]n2)CC1` [Example 3-6], for the setting “compound concentration 1000 nmol (in parentheses), read-out: inhibition rate (%) at a certain concentration”, the inhibition at 1 µM was 42.5%. With `CC(=O)OCCN(CCNC(=O)c1ccc(CNC(=O)c2cc(NC(=O)c3cc(F)c(F)cc3Cl)[nH]n2)cc1)CCOC(C)=O` [Example 1-47], the concentration for half-maximal inhibition (IC50) under setting [1] was less than 100 nM. Consider `O=C(NN1CCOCC1)c1ccc(CNC(=O)c2cc(NC(=O)c3cc(F)c(F)cc3Cl)[nH]n2)cc1` [Example 5-5], for which, under setting [1], the IC50 is less than 100 nM. On the same count and under the same terms, to `O=C(NCc1cccc(C(F)(F)F)c1)c1cc(NC(=O)c2cc(F)c(F)cc2Cl)[nH]n1` [Example 1-28] belongs less than 100 nM. Regarding `CCCCN(C(=O)c1cc(NC(=O)c2cc(F)c(F)cc2Cl)[nH]n1)C1CCN(C(=O)C(=O)OCC)CC1` [Example 1-112], under setting [3], the inhibition at 0.3 µM came out at 49.9%. For the compound `O=C(O)CNC(=O)c1ccc(CNC(=O)c2cc(NC(=O)c3cc(F)c(F)cc3Cl)[nH]n2)cc1` [Example 5-6], the IC50 under setting [1] is less than 100 nM. The same measure, in the same setting: to `CN(C)c1nc(CNC(=O)c2cc(NC(=O)c3cc(F)c(F)cc3Cl)[nH]n2)cs1` [Example 1-57] belongs less than 100 nM.

Take `CN(C(=O)c1cc(NC(=O)c2cc(F)c(F)cc2Cl)[nH]n1)c1ccc(C#N)cc1` [Example 6-7]: the inhibition at 0.3 µM under setting [5] turned out to be 12.9%. For the compound `CCCCN(Cc1ccccc1)C(=O)c1cc(NC(=O)c2cc(F)c(F)cc2Cl)[nH]n1` [Example 1-85], under setting [1], the IC50 was less than 100 nM. Same read-out and setting: in the case of `CC(C)c1ccc(CNC(=O)c2cc(NC(=O)c3cc(F)c(F)cc3Cl)[nH]n2)cc1` [Example 1-35] it was less than 100 nM; in that of `O=C(NCc1ccccc1F)c1cc(NC(=O)c2cc(F)c(F)cc2Cl)[nH]n1` [Example 1-8], less than 100 nM. Take `O=C(NCc1ccccc1)c1cc(NC(=O)c2c(F)ccc(Cl)c2F)[nH]n1` [Example 4-21]: the inhibition at 0.3 µM under setting [3] came out at 24.2%. In the case of `CN(C)C(=O)Nc1cccc(CNC(=O)c2cc(NC(=O)c3cc(F)c(F)cc3Cl)[nH]n2)c1` [Example 6-36], the half-maximal inhibitory concentration (IC50) under setting [2] is less than 100 nM. `CN(C)C(=O)Nc1ccc(CNC(=O)c2cc(NC(=O)c3cc(F)c(F)cc3Cl)[nH]n2)cc1` [Example 6-37]: under setting [2], the IC50 was less than 100 nM. For the compound `Cc1nc(C)c(CNC(=O)c2cc(NC(=O)c3cc(F)c(Cl)cc3Cl)[nH]n2)o1` [Example 3-53], the IC50 under setting [1] is less than 100 nM. For `O=C(NC1CCc2ccccc21)c1cc(NC(=O)c2cc(F)c(F)cc2Cl)[nH]n1` (stereo not shown) [Example 6-41], under setting [4], the inhibition at 0.1 µM stood at 12.3%. As for `CN1CCC(N(C)C(=O)c2cc(NC(=O)c3cc(F)c(F)cc3Cl)[nH]n2)CC1` [Example 1-83], the inhibition at 0.3 µM under setting [3] amounted to 6.1%.

With `CN(C(=O)c1cc(NC(=O)c2cc(F)c(F)cc2Cl)[nH]n1)c1ccc(-c2noc(=S)[nH]2)cc1` [Example 6-15], the IC50 under setting [2] was less than 100 nM. Still for that read-out and setting: to `O=C(Nc1cc(C(=O)N2C=NC3CCCCC3C2)n[nH]1)c1cc(F)c(F)cc1Cl` (stereo not shown) [Example 6-43] belongs less than 100 nM.

Take `O=C(Nc1cc(C(=O)N2CCc3ccccc3C2)n[nH]1)c1cc(F)c(F)cc1Cl` [Example 3-12]: under “compound concentration 400 nmol (in parentheses), read-out: inhibition rate (%) at a certain concentration”, the inhibition at 0.4 µM amounted to 50%. As to `CN(C)C1CCN(c2ccc(CNC(=O)c3cc(NC(=O)c4cc(F)c(F)cc4Cl)[nH]n3)cn2)CC1` [Example 5-40], the IC50 under setting [1] is less than 100 nM.

As for `CC(C)N(C(=O)c1cc(NC(=O)c2cc(F)c(F)cc2Cl)[nH]n1)c1ccccc1` [Example 4-3], under setting [1], the IC50 fell in the range of 100 to 300 nM.

Source of the values: patent US20070032529A1, “Pyrazole compounds and their use as antidiabetes agents” (Japan Tobacco Inc., priority 2005, published 2007).
